Measurements taken from ChEMBL document CHEMBL1201861, “Genomics of Drug Sensitity in Cancer screening data, Wellcome Trust Sanger Institute”.

Columns and labels:
HEL = assay: cells; type: functional, cell-based, Homo sapiens; conditions: Homo sapiens, HEL;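 further: growth inhibition of HEL cells, read out with a cell viability assay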
Description: SANGER: Inhibition of human HEL cell growth in a cell viability assay.

HSC-2 = assay: cells; type: functional, cell-based, Homo sapiens; conditions: Homo sapiens, HSC-2;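 further: growth inhibition of human HSC-2 cells, read out by a cell viability assay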
Description: SANGER: Inhibition of human HSC-2 cell growth in a cell viability assay.

SF-539 = assay: cells; type: functional, cell-based, Homo sapiens; conditions: Homo sapiens, SF-539;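 further: Read-out is a cell viability assay, with IC50 reflecting inhibition of cell growth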
Description: SANGER: Inhibition of human SF539 cell growth in a cell viability assay.

DMS-273 = assay: cells; type: functional, cell-based, Homo sapiens; conditions: Homo sapiens, DMS-273
Description: SANGER: Inhibition of human DMS-273 cell growth in a cell viability assay.

ES1 = assay: cells; type: functional, cell-based, Homo sapiens; conditions: Homo sapiens, ES1;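 further: growth inhibition of ES1 cells, read out with a cell viability assay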
Description: SANGER: Inhibition of human ES1 cell growth in a cell viability assay.

EFM-19 = assay: cells; type: functional, cell-based, Homo sapiens; conditions: Homo sapiens, EFM-19;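 further: growth inhibition of human EFM-19 cells, measured in a cell viability assay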
Description: SANGER: Inhibition of human EFM-19 cell growth in a cell viability assay.

NB6 = assay: cells; type: functional, cell-based, Homo sapiens; conditions: Homo sapiens, NB6;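 further: growth inhibition of NB6 cells, read out by a cell viability assay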
Description: SANGER: Inhibition of human NB6 cell growth in a cell viability assay.

Calu-6 = assay: cells; type: functional, cell-based, Homo sapiens; conditions: Homo sapiens, Calu-6;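 further: growth of human Calu-6 cells, read out by a cell viability assay, IC50 marking inhibition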
Description: SANGER: Inhibition of human Calu-6 cell growth in a cell viability assay.

EM-2 = assay: cells; type: functional, cell-based; conditions: Homo sapiens;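 further: growth inhibition of EM-2 cells, read out with a cell viability assay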
Description: SANGER: Inhibition of human EM-2 cell growth in a cell viability assay.

RPMI-7951 = assay: cells; type: functional, cell-based, Homo sapiens; conditions: Homo sapiens, RPMI-7951
Description: SANGER: Inhibition of human RPMI-7951 cell growth in a cell viability assay.

CCRF-CEM = assay: cells; type: functional, cell-based; conditions: Homo sapiens;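 further: inhibition of CCRF-CEM cell growth, measured by a cell viability assay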
Description: SANGER: Inhibition of human CCRF-CEM cell growth in a cell viability assay.

G-361 = assay: cells; type: functional, cell-based, Homo sapiens; conditions: Homo sapiens, G-361
Detroit 562 = assay: cells; type: functional, cell-based, Homo sapiens; conditions: Homo sapiens, Detroit 562;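 further: growth inhibition of human Detroit 562 cells, read out by a cell viability assay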
C32 = assay: cells; type: functional, cell-based, Homo sapiens; conditions: Homo sapiens, C32;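 further: cell viability assay, with IC50 reflecting inhibition of C32 cell growth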
Description: SANGER: Inhibition of human C32 cell growth in a cell viability assay.

MV4-11 = assay: cells; type: functional, cell-based, MV-4-11; conditions: Homo sapiens;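 further: cell viability readout measuring growth inhibition of human MV-4-11 cells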
Description: SANGER: Inhibition of human MV-4-11 cell growth in a cell viability assay.

CP50-MEL-B = assay: cells; type: functional, cell-based, Homo sapiens; conditions: Homo sapiens, CP50-MEL-B;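 further: growth inhibition of the human cell line, measured with a cell viability read-out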
Description: SANGER: Inhibition of human CP50-MEL-B cell growth in a cell viability assay.

NCI-H630 = assay: cells; type: functional, cell-based, Homo sapiens; conditions: Homo sapiens, NCI-H630;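 further: growth inhibition of NCI-H630 cells, read out with a cell viability assay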
Description: SANGER: Inhibition of human NCI-H630 cell growth in a cell viability assay.

EW-22 = assay: cells; type: functional, cell-based; conditions: Homo sapiens;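 further: growth inhibition of the EW-22 cell line, measured with a cell viability readout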
Description: SANGER: Inhibition of human EW-22 cell growth in a cell viability assay.

A549 = assay: cells; type: functional, cell-based; conditions: Homo sapiens;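 further: growth inhibition of A549 cells, read out with a cell viability assay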
Description: SANGER: Inhibition of human A549 cell growth in a cell viability assay.

D-423MG = assay: cells; type: functional, cell-based; conditions: Homo sapiens
Description: SANGER: Inhibition of human D-423MG cell growth in a cell viability assay.

NCI-H1666 = assay: cells; type: functional, cell-based; conditions: Homo sapiens;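 further: growth inhibition of the cell line, read out with a cell viability assay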
Description: SANGER: Inhibition of human NCI-H1666 cell growth in a cell viability assay.

SW900 = assay: cells; type: functional, cell-based; conditions: Homo sapiens;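 further: IC50 is the concentration that inhibits SW900 cell growth, measured by a cell viability assay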
Description: SANGER: Inhibition of human SW900 cell growth in a cell viability assay.

NCI-H460 = assay: cells; type: functional, cell-based, Homo sapiens; conditions: Homo sapiens, NCI-H460;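 further: cell viability assay scoring growth inhibition of human NCI-H460 cells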
Description: SANGER: Inhibition of human NCI-H460 cell growth in a cell viability assay.

J-RT3-T3-5 = assay: cells; type: functional, cell-based; conditions: Homo sapiens;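 further: cell viability assay measuring growth inhibition of human J-RT3-T3-5 cells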
Description: SANGER: Inhibition of human J-RT3-T3-5 cell growth in a cell viability assay.

NB5 = assay: cells; type: functional, cell-based, Homo sapiens; conditions: Homo sapiens, NB5;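 further: growth inhibition of NB5 cells, read out as cell viability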
Description: SANGER: Inhibition of human NB5 cell growth in a cell viability assay.

LB831-BLC = assay: cells; type: functional, cell-based, Homo sapiens; conditions: Homo sapiens, LB831-BLC;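 further: growth inhibition of LB831-BLC cells, read out with a cell viability assay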
Description: SANGER: Inhibition of human LB831-BLC cell growth in a cell viability assay.

GDM-1 = assay: cells; type: functional, cell-based; conditions: Homo sapiens;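 further: cell viability readout used to measure growth inhibition of human GDM-1 cells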
Description: SANGER: Inhibition of human GDM-1 cell growth in a cell viability assay.

OPM-2 = assay: cells; type: functional, cell-based; conditions: Homo sapiens;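 further: growth of OPM-2 cells measured with a viability assay, IC50 for suppression of proliferation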
Description: SANGER: Inhibition of human OPM-2 cell growth in a cell viability assay.

YT = assay: cells; type: functional, cell-based; conditions: Homo sapiens
Description: SANGER: Inhibition of human YT cell growth in a cell viability assay.

NCI-H716 = assay: cells; type: functional, cell-based; conditions: Homo sapiens;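 further: growth inhibition of human NCI-H716 cells, measured by a cell viability assay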
Description: SANGER: Inhibition of human NCI-H716 cell growth in a cell viability assay.

NCI-H1694 = assay: cells; type: functional, cell-based; conditions: Homo sapiens;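 further: cell viability assay measuring inhibition of growth in human NCI-H1694 cells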
Description: SANGER: Inhibition of human NCI-H1694 cell growth in a cell viability assay.

LC-1F = assay: cells; type: functional, cell-based; conditions: Homo sapiens;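 further: growth inhibition of human LC-1F cells, read out with a cell viability assay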
Description: SANGER: Inhibition of human LC-1F cell growth in a cell viability assay.

NCI-H187 = assay: cells; type: functional, cell-based; conditions: Homo sapiens;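 further: growth inhibition of NCI-H187 cells, read out as cell viability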
Description: SANGER: Inhibition of human NCI-H187 cell growth in a cell viability assay.

NCI-H1882 = assay: cells; type: functional, cell-based; conditions: Homo sapiens;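 further: growth inhibition of the cell line, determined with a viability assay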
Description: SANGER: Inhibition of human NCI-H1882 cell growth in a cell viability assay.

SK-MM-2 = assay: cells; type: functional, cell-based; conditions: Homo sapiens;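 further: growth inhibition of human SK-MM-2 cells, read out with a cell viability assay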
Description: SANGER: Inhibition of human SK-MM-2 cell growth in a cell viability assay.

NCI-H2081 = assay: cells; type: functional, cell-based; conditions: Homo sapiens;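 further: growth inhibition of human NCI-H2081 cells, read out with a cell viability assay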
Description: SANGER: Inhibition of human NCI-H2081 cell growth in a cell viability assay.

NCI-H719 = assay: cells; type: functional, cell-based; conditions: Homo sapiens;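 further: growth inhibition of the cultured cell line, read out with a viability assay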
Description: SANGER: Inhibition of human NCI-H719 cell growth in a cell viability assay.

CHP-126 = assay: cells; type: functional, cell-based; conditions: Homo sapiens
Description: SANGER: Inhibition of human CHP-126 cell growth in a cell viability assay.

SIMA = assay: cells; type: functional, cell-based, Homo sapiens; conditions: Homo sapiens, SIMA;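 further: growth inhibition of SIMA cells, measured with a cell viability readout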
Description: SANGER: Inhibition of human SIMA cell growth in a cell viability assay.

HCC2157 = assay: cells; type: functional, cell-based; conditions: Homo sapiens;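 further: growth inhibition of the cancer cell line, read out as cell viability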
Description: SANGER: Inhibition of human HCC2157 cell growth in a cell viability assay.

PF-382 = assay: cells; type: functional, cell-based; conditions: Homo sapiens
Description: SANGER: Inhibition of human PF-382 cell growth in a cell viability assay.

DMS-153 = assay: cells; type: functional, cell-based; conditions: Homo sapiens
Description: SANGER: Inhibition of human DMS-153 cell growth in a cell viability assay.

EVSA-T = assay: cells; type: functional, cell-based, Homo sapiens; conditions: Homo sapiens, EVSA-T;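 further: growth inhibition of EVSA-T cells, read out with a cell viability assay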
Description: SANGER: Inhibition of human EVSA-T cell growth in a cell viability assay.

SUP-T1 = assay: cells; type: functional, cell-based; conditions: Homo sapiens;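 further: growth inhibition of human SUP-T1 cells, read out as cell viability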
Description: SANGER: Inhibition of human SUP-T1 cell growth in a cell viability assay.

NCI-H889 = assay: cells; type: functional, cell-based; conditions: Homo sapiens;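 further: cell growth inhibition of the cell line, read out with a viability assay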
Description: SANGER: Inhibition of human NCI-H889 cell growth in a cell viability assay.

CPC-N = assay: cells; type: functional, cell-based; conditions: Homo sapiens;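 further: growth inhibition of CPC-N cells, with a cell viability assay as the readout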
Description: SANGER: Inhibition of human CPC-N cell growth in a cell viability assay.

EB-3 = assay: cells; type: functional, cell-based; conditions: Homo sapiens;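 further: human EB-3 cells, growth inhibition read out via a cell viability assay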
Description: SANGER: Inhibition of human EB-3 cell growth in a cell viability assay.

ST486 = assay: SANGER: Inhibition of human ST486 cell growth in a cell viability assay.; type: functional, cell-based
NCI-H2171 = assay: cells; type: functional, cell-based; conditions: Homo sapiens;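 further: growth inhibition of human NCI-H2171 cells, read out by a cell viability assay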
Description: SANGER: Inhibition of human NCI-H2171 cell growth in a cell viability assay.

LB996-RCC = assay: cells; type: functional, cell-based; conditions: Homo sapiens
Description: SANGER: Inhibition of human LB996-RCC cell growth in a cell viability assay.

IMR-5 = assay: cells; type: functional, cell-based; conditions: Homo sapiens;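 further: growth inhibition of human IMR-5 cells, read out with a cell viability assay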
Description: SANGER: Inhibition of human IMR-5 cell growth in a cell viability assay.

REH = assay: cells; type: functional, cell-based; conditions: Homo sapiens;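 further: growth inhibition of REH cells determined with a cell viability read-out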
Description: SANGER: Inhibition of human REH cell growth in a cell viability assay.

KMS-12-PE = assay: cells; type: functional, cell-based; conditions: Homo sapiens;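 further: growth inhibition of human KMS-12-PE cells, measured with a cell viability assay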
Description: SANGER: Inhibition of human KMS-12-PE cell growth in a cell viability assay.

NALM-6 = assay: cells; type: functional, cell-based; conditions: Homo sapiens;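 further: growth inhibition of NALM-6 cells, read out with a cell viability assay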
Description: SANGER: Inhibition of human NALM-6 cell growth in a cell viability assay.

Raji = assay: cells; type: functional, cell-based; conditions: Homo sapiens;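 further: cell viability assay measuring inhibition of Raji cell growth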
Description: SANGER: Inhibition of human Raji cell growth in a cell viability assay.

BL-70 = assay: SANGER: Inhibition of human BL-70 cell growth in a cell viability assay.; type: functional, cell-based

Measured: IC50

CN(C)C/C=C/C(=O)Nc1cc2c(Nc3ccc(F)c(Cl)c3)ncnc2cc1O[C@H]1CCOC1 [AFATINIB]
> 0.5 µM: HEL | SF-539 | DMS-273 | ES1 | EFM-19 | NB6 | Calu-6 | EM-2 | RPMI-7951 | CCRF-CEM | G-361 | Detroit 562 | C32 | MV4-11 | CP50-MEL-B | NCI-H630 | EW-22 | A549 | D-423MG | NCI-H1666 | SW900 | NCI-H460 | J-RT3-T3-5 | NB5 | LB831-BLC
0.168 µM: HSC-2

CC(=O)O[C@@]12CO[C@@H]1C[C@H](O)[C@@]1(C)C(=O)[C@H](O)C3=C(C)[C@@H](OC(=O)[C@H](O)[C@@H](NC(=O)OC(C)(C)C)c4ccccc4)C[C@@](O)([C@@H](OC(=O)c4ccccc4)[C@H]21)C3(C)C [DOCETAXEL]
0.00505 µM: NCI-H1666
0.000448 µM: RPMI-7951
0.00755 µM: SW900
0.00693 µM: CP50-MEL-B
0.00447 µM: Calu-6
0.00235 µM: J-RT3-T3-5
0.000882 µM: A549
> 0.01 µM: HEL | NB6 | CCRF-CEM | G-361 | C32 | NCI-H630 | EW-22 | NB5
0.0013 µM: D-423MG
0.00077 µM: ES1
0.00148 µM: LB831-BLC
0.00174 µM: MV4-11
0.000674 µM: DMS-273
0.00215 µM: EFM-19
0.00623 µM: EM-2
0.000755 µM: HSC-2
0.000302 µM: SF-539
0.000902 µM: Detroit 562

CN(Cc1cnc2nc(N)nc(N)c2n1)c1ccc(C(=O)N[C@@H](CCC(=O)O)C(=O)O)cc1 [METHOTREXATE]
0.0164 µM: ES1
0.0571 µM: EM-2
0.0194 µM: MV4-11 | J-RT3-T3-5
> 0.2 µM: HSC-2 | SF-539 | DMS-273 | EFM-19 | NB6 | Calu-6 | RPMI-7951 | CCRF-CEM | Detroit 562 | C32 | CP50-MEL-B | NCI-H630 | EW-22 | A549 | D-423MG | NCI-H1666 | SW900 | NB5 | LB831-BLC
0.0115 µM: HEL

O=C(c1cc(Cc2n[nH]c(=O)c3ccccc23)ccc1F)N1CCN(C(=O)C2CC2)CC1 [OLAPARIB]
4.13 µM: MV4-11
1.11 µM: ES1
4.36 µM: EW-22
> 5 µM: HEL | HSC-2 | SF-539 | DMS-273 | EFM-19 | NB6 | Calu-6 | EM-2 | RPMI-7951 | CCRF-CEM | Detroit 562 | C32 | CP50-MEL-B | NCI-H630 | A549 | D-423MG | NCI-H1666 | SW900 | J-RT3-T3-5 | NB5 | LB831-BLC

CNC(=O)c1cc(Oc2ccc(NC(=O)Nc3ccc(Cl)c(C(F)(F)F)c3)cc2)ccn1 [SORAFENIB]
< 0.0156 µM: MV4-11
1.36 µM: EM-2
0.907 µM: GDM-1
2.4 µM: NCI-H2171
3.84 µM: ST486
not listed: HSC-2 | DMS-273 | EFM-19 | RPMI-7951 | G-361 | Detroit 562 | C32 | CP50-MEL-B | NCI-H630 | A549 | D-423MG | NCI-H1666 | SW900 | NCI-H460
> 4 µM: all other assays above
